Consider ten compounds from ChEMBL document CHEMBL1201862, “PubChem BioAssay data set” (2004).

What all share (experiment): growth of human tumour cells (NCI), 48 h
In test [1] the test system is EKVX.
Test [2] has as its system RXF 393.
The subject of test [3] is MDA-MB-435.
Test [4] deals with Hs-578T.
For test [5], the system named is MDA-MB-231.
Test [6] relates to ACHN.
The test system of test [7] is HOP-92.
For test [8], the system named is SK-MEL-28.
Test [9] concerns UACC-62.
Test [10] concerns 786-0.
For test [11], the system named is HOP-62.
Test [12] deals with SNB-19.
In test [13] the test system is UO-31.
Test [14] relates to SNB-75.
For test [15], the system named is DU-145.
The test system of test [16] is PC-3.
In test [17] the test system is CCRF-CEM.
Test [18] concerns OVCAR-3.
For test [19], the system named is COLO 205.
The subject of test [20] is SK-OV-3.

The structures appear in SMILES notation. “And” between values parts separate entries of the source, which are not always exact repeats. Identical values can stand only once.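 Method: 48-hour compound exposure of cells in 96-well plates, five concentrations, linear interpolation of endpoints. At the GI50, growth is halved.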 The source made the active and inactive calls. Cut-off read from the data, not from the text of the source: active = GI50 up to about 1.1 µM and inactive = higher.

For the compound `O=Cc1ccc(-c2cccs2)s1`, the GI50 in test [1] was 79.4 µM (inactive); in [2] it was 18.4 µM (inactive); in [3], 66.2 µM (inactive); in test [4] it was 34.1 µM (inactive); in test [5] it was > 80 µM (inactive); in test [6] it was > 100 µM (inactive). In addition, the GI50 in [7] is 55.6 µM (inactive); in test [8], > 100 µM (inactive); in test [9], 1.16 µM (inactive); in test [10], > 100 µM (inactive); in test [11] it was 67.6 µM (inactive); in test [12] it was > 100 µM (inactive). The GI50 in test [13] is 64 µM (inactive); in test [14], 76 µM (inactive); in test [15], > 100 µM (inactive); in test [16], > 100 µM (inactive); in test [17], 81.8 µM (inactive); in test [18], 12.4 µM (inactive). Besides, the GI50 in [19] is 42.3 µM (inactive); in test [20] it was > 100 µM (inactive).
Regarding `CC(C)=CCC[C@@H](C)C1=C(Nc2ccccc2F)C(=O)C(C)=C(O)C1=O`, the GI50 in test [1] is 5.12 µM (inactive); in test [2], 16.8 µM (inactive); in [3], 6.22 µM (inactive); in [4], 5.31 µM (inactive); in test [5], 4.53 µM (inactive); in test [6], 3.5 µM (inactive). Further, the GI50 in test [7] is 9.31 µM (inactive); in [8], 17.6 µM (inactive); in test [9], 4.81 µM (inactive); in [10], 5.65 µM (inactive); in [11] it was 9.98 µM (inactive); in test [12], 4.42 µM (inactive). In addition, the GI50 in [13] was 4.45 µM (inactive); in [14], 12.7 µM (inactive); in test [15] it was 9.35 µM (inactive); in [16], 8.61 µM (inactive); in [17] it was 0.869 µM (active); in test [18], 4.51 µM (inactive). Besides, the GI50 in test [19] is 2.9 µM (inactive); in [20] it was 6.47 µM (inactive).
Turning to `CCN1CCC(O)(/C=C/c2ccc(C)cc2C)C(C(=O)/C=C/c2ccc(C)cc2C)C1` (stereo not given), the GI50 in test [1] was 2.74 µM (inactive); in test [2], 3.21 µM (inactive); in test [3], 2.51 µM (inactive); in test [4], 2.09 µM (inactive); in test [5] it was 2.23 µM (inactive); in test [6], 1.83 µM (inactive). Moreover, the GI50 is 1.85 µM (inactive) in [7]; 4.7 µM (inactive) in test [8]; 3.41 µM (inactive) in test [9]; 1.71 µM (inactive) in test [10]; 2.89 µM (inactive) in [11]; 4.03 µM (inactive) in [12]. The GI50 in test [13] is 2.35 µM (inactive); in test [14], 5.79 µM (inactive); in test [15], 4.59 µM (inactive); in test [16], 2.5 µM (inactive); in test [17] it was 1.82 µM (inactive); in [18] it was 2.53 µM (inactive). The GI50 in test [19] is 1.98 µM (inactive); in [20], 9.57 µM (inactive).
Consider `O=c1[nH]nc(-c2ccc([N+](=O)[O-])cc2)n1/N=C/c1ccc([N+](=O)[O-])cc1`, for which the GI50 was > 100 µM (inactive) in [1]; 56.9 µM (inactive) in test [2]; 99.5 µM (inactive) in test [3]; > 100 µM (inactive) in test [4]; > 100 µM (inactive) in test [5]; > 100 µM (inactive) in test [6]. The GI50 was > 100 µM (inactive) in test [7]; > 100 µM (inactive) in [8]; 71.4 µM (inactive) in [9]; 78.7 µM (inactive) in test [10]; > 100 µM (inactive) in [11]; > 100 µM (inactive) in test [12]. In addition, the GI50 was > 100 µM (inactive) in test [13]; > 100 µM (inactive) in [14]; > 100 µM (inactive) in test [15]; 57.9 µM (inactive) in test [16]; 45 µM (inactive) in [17]; > 100 µM (inactive) in test [18]. In addition, the GI50 in test [19] and in test [20] was > 100 µM (inactive) in each case.
Take `Cc1ccc(S(=O)(=O)N/N=C2\C=C[C@]3(CC2)C(=O)N(C)c2ccccc23)cc1`: the GI50 in [1] is > 100 µM (inactive); in test [2] it was > 100 µM (inactive); in test [3], > 100 µM (inactive); in [4] it was 98.9 µM (inactive); in test [5], > 100 µM (inactive); in [6], > 100 µM (inactive). Besides, the GI50 was > 100 µM (inactive) in [7]; > 100 µM (inactive) in test [8]; > 100 µM (inactive) in test [9]; 33.5 µM (inactive) in test [10]; > 100 µM (inactive) in [11]; > 100 µM (inactive) in test [12]. Also, the GI50 in test [13], in test [14], in [15], in [16], in test [17] and in test [18] was > 100 µM (inactive) each time. Moreover, the GI50 in [19] and in test [20] was > 100 µM (inactive) throughout.
`CCC1CCC2C3CC=C4CC(OC(C)=O)C(N)CC4(C)C3CCC12C` (stereo not given): the GI50 in [1] is 4.62 µM (inactive); in test [2], 1.85 µM (inactive); in test [3], 2.35 µM (inactive); in [4], 1.93 µM (inactive); in test [5], 1.95 µM (inactive); in test [6], 7.89 µM (inactive). Further, the GI50 was 5.02 µM (inactive) in test [7]; 3.66 µM (inactive) in [8]; 4.89 µM (inactive) in test [9]; 2.02 µM (inactive) in test [10]; 2.08 µM (inactive) in [11]; 2.51 µM (inactive) in test [12]. Besides, the GI50 in test [13] was 5.24 µM (inactive); in test [14], 1.89 µM (inactive); in test [15] it was 2.92 µM (inactive); in [16], 2.71 µM (inactive); in test [17] it was 2.47 µM (inactive); in [18], 5.85 µM (inactive). Besides, the GI50 in [19] was 5.18 µM (inactive); in test [20], 9.53 µM (inactive).
As for `CN(C)C(c1ccccc1)C1COC2Cc3ccccc3C1O2` (stereo not given), the GI50 was > 100 µM (inactive) in test [1]; > 100 µM (inactive) in test [2]; > 100 µM (inactive) in test [3]; 92.3 µM (inactive) in [4]; > 100 µM (inactive) in test [5]; > 100 µM (inactive) in test [6]. The GI50 in test [7] was 58.1 µM (inactive); in test [8], > 100 µM (inactive); in test [9] it was > 100 µM (inactive); in test [10] it was > 100 µM (inactive); in [11] it was > 100 µM (inactive); in test [12], > 100 µM (inactive). The GI50 was > 100 µM (inactive) in test [13]; 24.9 µM (inactive) and 15.5 µM (inactive) in test [14]; > 100 µM (inactive) in test [15]; 99.3 µM (inactive) and 76.4 µM (inactive) in test [16]; 79.3 µM (inactive) in test [17]; 47.1 µM (inactive) and 64 µM (inactive) in test [18]. Also, the GI50 in test [19] and in [20] was > 100 µM (inactive) throughout.
As to `CN(C)CCNc1ccc2nnn3c4ccccc4c(=O)c1c23`, the GI50 was 3.78 µM (inactive) in [1]; 5.51 µM (inactive) in [2]; 3.44 µM (inactive) in [3]; 3.3 µM (inactive) in test [4]; 3.69 µM (inactive) in test [5]; 1.22 µM (inactive) in test [6]. Moreover, the GI50 in test [7] is 2.48 µM (inactive); in test [8], 4.99 µM (inactive); in test [9] it was 3.39 µM (inactive); in test [10], 3.27 µM (inactive); in [11] it was 3.72 µM (inactive); in test [12], 4.56 µM (inactive). The GI50 in test [13] was 1.32 µM (inactive); in [14], 2.55 µM (inactive); in [15] it was 3.91 µM (inactive); in test [16], 2.41 µM (inactive); in test [17] it was 2.27 µM (inactive); in [18], 3.36 µM (inactive). Further, the GI50 in test [19] was 1.34 µM (inactive); in [20], 7.87 µM (inactive).
Take `CN(C)Cc1cc(Cl)c(O)c(CN(C)C)c1`: the GI50 in test [1], in test [2], in test [3], in test [4], in test [5] and in test [6] was > 100 µM (inactive) in each case. The GI50 in [7], in test [8], in [9], in test [10], in [11] and in test [12] was > 100 µM (inactive) each time. Also, the GI50 in test [13], in test [14], in test [15], in test [16], in [17] and in test [18] was > 100 µM (inactive) in each case. Besides, the GI50 in [19] and in [20] was > 100 µM (inactive) in each case.
On to `COc1ccc([C@@]23CCC(=O)C[C@@H]2N(C)CC3)cc1OC`, for which the GI50 in test [1], in test [2], in test [3], in test [4], in test [5] and in test [6] was > 100 µM (inactive) each time. The GI50 in [7], in test [8], in test [9], in [10], in [11] and in test [12] was > 100 µM (inactive) throughout. Besides, the GI50 in test [13], in test [14], in [15], in test [16], in test [17] and in [18] was > 100 µM (inactive) each time. Besides, the GI50 in test [19] and in test [20] was > 100 µM (inactive) throughout.
